These molecules were tested against T1, JNK3 (h) (Homo sapiens, UniProt P53779) (assay: JNK3 kinase inhibition, Reaction Biology Kinase HotSpot radiometric assay). Conditions: enzymatic activity; ATP 10 μM.
T1 construct: purchased Reaction Biology Corp. (Kinase HotSpot service)
T1 sequence (P53779 whole entry): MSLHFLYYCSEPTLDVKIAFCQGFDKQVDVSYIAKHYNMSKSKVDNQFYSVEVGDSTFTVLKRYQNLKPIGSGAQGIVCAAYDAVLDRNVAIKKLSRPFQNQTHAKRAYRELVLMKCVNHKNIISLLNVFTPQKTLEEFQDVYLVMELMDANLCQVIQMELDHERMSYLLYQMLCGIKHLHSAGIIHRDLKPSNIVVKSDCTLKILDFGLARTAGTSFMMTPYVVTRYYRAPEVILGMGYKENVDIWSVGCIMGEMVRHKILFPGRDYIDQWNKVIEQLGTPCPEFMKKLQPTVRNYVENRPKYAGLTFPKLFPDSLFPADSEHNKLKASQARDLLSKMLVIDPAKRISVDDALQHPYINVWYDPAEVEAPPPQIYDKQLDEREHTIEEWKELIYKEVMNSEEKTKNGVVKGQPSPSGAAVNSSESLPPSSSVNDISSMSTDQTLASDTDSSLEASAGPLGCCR
Type: biochemical
Excerpt: (specific activity approx. 500 cpm/pmol, concentration as required).
NC(=O)N1Cc2nc(-c3ccc4c(c3)OCO4)n(-c3ccnc(N[C@H]4CCCN(C(=O)C5CCC5)C4)n3)c2C1 [Compound 20c, (S)-2-(Benzo[d][1,3]Dioxol-5-yl)-1-(2-((1-(Cyclobutanecarbonyl)Piperidin-3-yl)Amino)Pyrimidin-4-yl)-4,6-Dihydropyrrolo[3,4-d]Imidazole-5(1H)-Carboxamide] was tested, and the IC50 was 225 nM.
Work on NC(=O)N1Cc2nc(-c3ccc(Cl)c(Cl)c3)n(-c3ccnc(N[C@H]4CCCN(C(=O)C5CC5)C4)n3)c2C1 [Compound 17a, (S)-1-(2-((1-(Cyclopropanecarbonyl)Piperidin-3-yl)Amino)Pyrimidin-4-yl)-2-(3,4-Dichlorophenyl)-4,6-Dihydropyrrolo[3,4-d]Imidazole-5(1H)-Carboxamide] yielded an IC50 of 10.4 nM.
Work on O=C(C1CC1)N1CCC[C@H](Nc2nccc(-n3c(-c4ccc(Cl)c(Cl)c4)nc4c3CN(C(=O)N3CCC(O)CC3)C4)n2)C1 [Compound 22a, (S)-(1-(2-((1-(Cyclopropanecarbonyl)piperidin-3-yl)amino)pyrimidin-4-yl)-2-(3,4-dichlorophenyl)-4,6-dihydropyrrolo[3,4-d]Imidazol-5(1H)-yl)(4-hydroxypiperidin-1-yl)methanone] yielded an IC50 of 18.6 nM.

Source: PMC7084495, “Discovery of 1-Pyrimidinyl-2-Aryl-4,6-Dihydropyrrolo [3,4-d]Imidazole-5(1H)-Carboxamide as a Novel JNK Inhibitor” (International Journal of Molecular Sciences, 2020)
